Test results taken from patent publication US7060834B2, “N-type calcium channel antagonists for the treatment of pain” (AstraZeneca AB, priority 2001, dated 2006).

Key:
[1] = test system: formalin-induced nocifensive behaviours; assay: Formalin test; format: in vivo, rats
Procedure: II. Formalin Test. The Formalin test assesses the inhibitory effects of orally administered N-type calcium channel antagonists on formalin-induced nocifensive behaviours in rats. The formalin test is a well established pain test (Dubuisson and Dennis, 1977; Wheeler-Aceto et al., 1990; Coderre et al., 1993). This test consists of two distinct phases of formalin-induced behavior. The first phase response, occurring between 0 to 5 minutes, is caused by acute nociception to the noxious chemical (formalin) injected into the paw. This is followed by a quiescent period of between 5 to 15 min post injection. A second phase response, occurring after 15 minutes and lasting up to 60 minutes, is caused by sensitization of the central neurons in the dorsal horn. Central sensitization augments the noxious afferent input and a stronger pain barrage is transmitted into the brain. Inhibition of the second phase response is indicative of a central mechanism of drug action. The procedure for the formalin test is as follows: male rats are placed in a Plexiglas chamber and observed for 30-45 min. to observe their baseline activity. Multiple groups of animals are pretreated with either vehicle or different doses of a test compound. Animals are dosed with the drug of interest either 40 min., if by the intraperitoneal route, or 90 min., if by the oral route, prior to injection of formalin into a hind paw (under the dorsal skin; 0.05 mL of sterile 5% formalin). The number of paw flinches and licks during first phase (0-5 min.) and second phase (20-35 min.) are scored and recorded. […] and lick responses are calculated as percentage of inhibition compared with the mean score of a saline control group. Drug potencies are expressed as the dose which causes 50% of the maximum inhibitory effect (“ID50”). Student t-tests are used for statistical analysis to determine the significance of drug effects. Compounds are considered active based on their ability to inhibit the flinch response.

N-type calcium channel = N-type calcium channel (Homo sapiens, UniProt Q00975); assay: N-Channel FLIPR (Fluorescent Laser Imaging Plate Reader) assay; format: cell-based; details: inhibition of 80 mM K+ evoked calcium flux, differentiated IMR32 cells
Chain of N-type calcium channel (Q00975 whole entry): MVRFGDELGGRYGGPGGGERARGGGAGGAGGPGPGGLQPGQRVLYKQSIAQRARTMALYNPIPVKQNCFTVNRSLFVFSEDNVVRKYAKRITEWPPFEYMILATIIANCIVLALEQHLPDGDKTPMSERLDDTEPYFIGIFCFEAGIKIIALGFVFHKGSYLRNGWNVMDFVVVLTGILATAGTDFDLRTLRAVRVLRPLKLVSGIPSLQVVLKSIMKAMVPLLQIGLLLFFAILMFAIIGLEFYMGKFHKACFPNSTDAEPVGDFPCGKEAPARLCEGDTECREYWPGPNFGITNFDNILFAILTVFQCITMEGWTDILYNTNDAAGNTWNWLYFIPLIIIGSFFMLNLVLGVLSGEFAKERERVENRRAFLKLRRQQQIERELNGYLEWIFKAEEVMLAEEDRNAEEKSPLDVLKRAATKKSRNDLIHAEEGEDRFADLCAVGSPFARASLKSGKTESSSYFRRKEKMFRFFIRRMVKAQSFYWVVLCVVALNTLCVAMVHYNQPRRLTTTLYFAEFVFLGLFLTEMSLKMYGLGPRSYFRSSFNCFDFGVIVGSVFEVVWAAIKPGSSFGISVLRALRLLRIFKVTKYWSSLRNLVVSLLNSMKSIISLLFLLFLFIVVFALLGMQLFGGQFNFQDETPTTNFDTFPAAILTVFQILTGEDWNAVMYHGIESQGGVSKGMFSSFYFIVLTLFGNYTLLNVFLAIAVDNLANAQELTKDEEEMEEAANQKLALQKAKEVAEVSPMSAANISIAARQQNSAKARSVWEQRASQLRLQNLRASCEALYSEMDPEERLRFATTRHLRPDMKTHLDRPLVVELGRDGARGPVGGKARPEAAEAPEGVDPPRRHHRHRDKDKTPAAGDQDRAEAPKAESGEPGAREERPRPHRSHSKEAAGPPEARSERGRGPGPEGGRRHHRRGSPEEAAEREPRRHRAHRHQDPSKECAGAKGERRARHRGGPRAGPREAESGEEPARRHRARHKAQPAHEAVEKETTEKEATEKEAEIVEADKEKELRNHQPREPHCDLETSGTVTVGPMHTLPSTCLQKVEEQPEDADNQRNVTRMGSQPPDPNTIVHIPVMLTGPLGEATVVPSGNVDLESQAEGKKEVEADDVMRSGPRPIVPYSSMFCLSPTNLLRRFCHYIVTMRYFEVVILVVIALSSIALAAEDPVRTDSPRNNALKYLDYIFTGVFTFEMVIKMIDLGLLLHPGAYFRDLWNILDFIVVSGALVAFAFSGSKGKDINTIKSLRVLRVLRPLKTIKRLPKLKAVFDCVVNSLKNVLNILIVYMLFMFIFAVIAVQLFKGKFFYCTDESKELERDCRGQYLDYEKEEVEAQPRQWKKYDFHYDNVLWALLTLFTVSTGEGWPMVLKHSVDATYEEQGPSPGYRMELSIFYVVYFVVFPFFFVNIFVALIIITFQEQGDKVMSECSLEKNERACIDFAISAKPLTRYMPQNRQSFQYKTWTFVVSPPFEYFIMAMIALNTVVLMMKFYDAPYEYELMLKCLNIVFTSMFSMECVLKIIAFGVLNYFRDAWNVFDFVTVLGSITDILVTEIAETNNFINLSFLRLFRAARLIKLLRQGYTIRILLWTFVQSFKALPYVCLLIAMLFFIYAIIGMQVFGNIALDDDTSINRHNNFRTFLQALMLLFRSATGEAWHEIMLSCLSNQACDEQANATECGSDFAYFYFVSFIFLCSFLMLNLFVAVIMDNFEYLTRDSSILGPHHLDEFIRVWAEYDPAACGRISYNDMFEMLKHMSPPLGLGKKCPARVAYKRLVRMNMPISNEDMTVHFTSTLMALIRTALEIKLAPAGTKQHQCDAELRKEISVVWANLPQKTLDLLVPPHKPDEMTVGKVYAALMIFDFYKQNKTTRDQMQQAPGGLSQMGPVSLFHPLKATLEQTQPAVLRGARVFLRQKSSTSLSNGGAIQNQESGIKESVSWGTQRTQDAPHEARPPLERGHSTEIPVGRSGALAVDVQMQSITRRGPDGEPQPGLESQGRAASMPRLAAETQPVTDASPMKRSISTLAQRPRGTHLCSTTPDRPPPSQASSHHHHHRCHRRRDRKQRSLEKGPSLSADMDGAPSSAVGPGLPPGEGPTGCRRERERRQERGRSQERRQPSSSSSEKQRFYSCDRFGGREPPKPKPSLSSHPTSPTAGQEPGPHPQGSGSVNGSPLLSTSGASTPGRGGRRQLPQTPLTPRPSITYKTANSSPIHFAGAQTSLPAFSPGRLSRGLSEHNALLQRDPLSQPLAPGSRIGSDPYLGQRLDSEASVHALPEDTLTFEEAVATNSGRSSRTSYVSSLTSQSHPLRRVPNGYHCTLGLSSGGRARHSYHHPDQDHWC
Chain of N-type calcium channel (P54289 25-1103 partner): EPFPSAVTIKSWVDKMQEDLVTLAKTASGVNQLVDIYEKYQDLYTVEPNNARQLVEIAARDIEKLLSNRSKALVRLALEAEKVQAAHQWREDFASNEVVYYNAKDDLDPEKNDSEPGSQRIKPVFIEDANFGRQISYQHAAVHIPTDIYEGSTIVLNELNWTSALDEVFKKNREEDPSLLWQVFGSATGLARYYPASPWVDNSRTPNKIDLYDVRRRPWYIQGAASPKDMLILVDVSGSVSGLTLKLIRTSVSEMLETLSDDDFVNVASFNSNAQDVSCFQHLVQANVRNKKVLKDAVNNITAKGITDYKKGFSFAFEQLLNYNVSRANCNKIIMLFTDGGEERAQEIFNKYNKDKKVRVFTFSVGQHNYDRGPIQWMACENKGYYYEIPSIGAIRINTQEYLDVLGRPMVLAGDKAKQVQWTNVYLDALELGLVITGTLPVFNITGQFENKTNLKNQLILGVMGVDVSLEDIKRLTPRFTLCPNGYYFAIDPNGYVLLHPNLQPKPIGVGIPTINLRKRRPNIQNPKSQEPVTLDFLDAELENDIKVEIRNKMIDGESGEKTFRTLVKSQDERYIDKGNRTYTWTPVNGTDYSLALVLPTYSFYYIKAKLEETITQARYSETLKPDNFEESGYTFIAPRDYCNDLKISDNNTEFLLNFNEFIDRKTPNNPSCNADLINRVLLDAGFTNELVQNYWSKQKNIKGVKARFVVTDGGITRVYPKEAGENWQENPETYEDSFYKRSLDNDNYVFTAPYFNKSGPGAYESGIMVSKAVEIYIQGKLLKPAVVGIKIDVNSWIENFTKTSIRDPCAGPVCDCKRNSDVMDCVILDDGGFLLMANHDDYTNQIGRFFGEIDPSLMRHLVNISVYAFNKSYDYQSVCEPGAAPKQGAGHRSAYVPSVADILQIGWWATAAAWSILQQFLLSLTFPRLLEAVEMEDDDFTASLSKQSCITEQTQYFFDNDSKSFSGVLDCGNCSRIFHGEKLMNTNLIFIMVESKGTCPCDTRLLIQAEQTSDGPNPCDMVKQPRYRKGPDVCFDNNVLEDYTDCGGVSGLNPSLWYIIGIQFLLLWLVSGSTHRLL
Chain of N-type calcium channel (P54284 whole entry partner): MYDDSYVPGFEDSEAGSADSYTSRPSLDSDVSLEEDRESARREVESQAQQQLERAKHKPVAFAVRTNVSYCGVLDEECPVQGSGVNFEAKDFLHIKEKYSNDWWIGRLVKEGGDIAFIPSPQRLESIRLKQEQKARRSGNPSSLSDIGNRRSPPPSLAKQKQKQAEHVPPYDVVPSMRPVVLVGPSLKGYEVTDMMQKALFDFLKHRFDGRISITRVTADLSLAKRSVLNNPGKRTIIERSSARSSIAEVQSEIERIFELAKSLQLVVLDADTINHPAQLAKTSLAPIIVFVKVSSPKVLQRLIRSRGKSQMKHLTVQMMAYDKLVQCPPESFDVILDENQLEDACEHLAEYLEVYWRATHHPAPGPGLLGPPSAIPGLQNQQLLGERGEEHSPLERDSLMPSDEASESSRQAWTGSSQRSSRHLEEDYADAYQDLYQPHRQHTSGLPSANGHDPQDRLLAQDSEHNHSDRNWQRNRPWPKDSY

chemo-nociception = details: phenylbenzoquinone-induced writhing and formalin test; cited from earlier work

SMILES	IC50 (N-type calcium channel) [µM]	other results
COc1ccc(Nc2cc(NCC(C)(C)C)c3cccc(F)c3n2)cc1OC [Example 8, N2(3,4-Dimethoxy-phenyl)-N4(2,2-dimethyl-propyl)-8-fluoro-quinoline-2,4-diamine]	2.82	–
CC(C)(C)CNc1cc(Nc2ccc3ncsc3c2)nc2c(F)cccc12 [Example 11, N2-Benzothiazol-6-yl-N4(2,2-dimethyl-propyl)-8-fluoro-quinoline-2,4-diamine]	6.87	–
COc1ccccc1CC(=N)N1C[C@@H]2C(=O)CCC(c3ccccc3)(c3ccccc3)[C@@H]2C1 [RP 67,580]	–	analgesia (chemo-nociception): produced analgesia with potency comparable to that of morphine

More lines, main results first:

IC50 (N-type calcium channel) [µM]	SMILES	other results
5.87	CC(C)(C)CNc1cc(Nc2ccc(F)c(Cl)c2)nc2ccccc12 [Example 2, N2(3-chloro-4-fluoro-phenyl)-N4(2,2-dimethyl-propyl)-quinoline-2,4-diamine]	Formalin test % inhibition (dose, time, route) ([1]; (76, 40, IP)): 39 (76, 40, IP) %
1.72	COc1ccc(Nc2cc(NCC(C)(C)C)c3ccccc3n2)cc1OC [Example 3, N2(3,4-dimethoxy-phenyl)-N4(2,2-dimethyl-propyl)-quinoline-2,4-diamine]	Formalin test % inhibition (dose, time, route) ([1]; (75, 40, IP)): 22 (75, 40, IP) %
0.67	CC(C)(C)CNc1cc(Nc2ccccc2N2CCOCC2)nc2ccccc12 [Example 7, N4(2,2-dimethyl-propyl)-N2(2-morpholin-4-yl-phenyl)-quinoline-2,4-diamine]	Formalin test % inhibition (dose, time, route) ([1]; (59, 40, IP)): 24 (59, 40, IP) %
